From US11413278B2, “Compounds and methods for promoting stress resistance” (priority 2015, dated 2022)
Where two headings read alike, the source gives them in different places.

How the values were obtained:
[1] = test system: WI-38 cells; experiment: MMS resistance assay; format: cell-based, human; details: for fold induction at 10 µM: Homo sapiens, 12 h, normalized ATP measurement; for Assay 3: MMS-resistant / Assay 5: Triple resistant: YES/NO; for Assay 3: MMS-resistant: * indicates partial; for Assay 5: Triple resistant: H2O2, cadmium and MMS
How it was run: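 Resistance to CdCl2 or MMS stress (12 h exposure) was scored in WI-38 fibroblasts pretreated with compound at 0.25–20 μM final, five doses, technical triplicates. MMS plates had compound added 24 h before MMS, after a shift to serum-free DMEM+2% BSA. Significance came from a global variance t-test over two independent runs.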

[2] = test system: WI-38 cells; details: for No H2O2 stress treatment, at 10 uM (fold change): normalized ATP measurement; for Assay 1: H2O2-resistant: YES/NO, if NO, possibly due to repeated freezing/thawing of stocks
[3] = target: T1, human PARP1 (Homo sapiens, UniProt P09874); experiment: PARP inhibitor assay (HT Fluorescent Homogeneous PARP Inhibition Assay Kit); format: biochemical; details: score
T1 construct: purchased Trevigen
How it was run: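 Compounds (10 μM final) incubated 30 min, room temperature, dark, with human PARP1, nicotinamide adenine dinucleotide and activated DNA. Fluorescent signal generated by 1 hr cycling with diaphorase and resazurin, then reaction stopped.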

[4] = test system: C. elegans; experiment: C. elegans lifespan assays (liquid and plate); format: in vivo, Caenorhabditis elegans; details: for ILS at 60 µM / ILS at 66 µM: Caenorhabditis elegans; for O = Life span- extending scores in worms: score scale 0 to 2, 4 to 6 independent trials; for M = Lifespan-extending scores in worms: summary score
[5] = test system: PC12 cells expressing poly(Q)103-Htt-EGFP; experiment: Poly(Q) toxicity & viability analysis (cellular model of Huntington's disease); format: cell-based, rat; details: for M = Huntington's poly-Q toxicity attenuation: score; for K = Huntington's poly-Q toxicity attenuation: summary score
How it was run: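 Readout is CellTiter-Glo ATP content measured after 48 hrs. Cells are a PC12 line stably expressing inducible poly(Q)103-Htt-EGFP, where induction produces toxic aggregates.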

[6] = test system: phosphorylated γH2A.X and TP53BP1; experiment: DNA damage marker analysis (immuno-staining); details: for activity at 10 µM: Homo sapiens, WI-38, 24 h
How it was run: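 Immunofluorescence read-out for phospho-γH2A.X (Ser-139) and phospho-TP53BP1 (Ser-1778), with DAPI nuclear stain and automated imaging at 10×. WI-38 cells (~8,000 per well) were exposed to small molecules for 24 h after 24 h of culture, with doxorubicin (300 nM, 24 h) or H2O2 (700 μM, 3 h) as positive damage controls.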

[7] = Exp. 1, WI-38 cells, read-out: Exp. 1, under MMS stress treatment, at 10 uM (fold change)
[8] = Exp. 2, WI-38 cells, read-out: Exp. 2, under MMS stress treatment, at 10 uM (fold change)
[9] = score in summary of 38 core set hits
[10] = WI-38 cells, 10 μM, (*) = compromised ability to protect cells from H2O2, could be due to stability issue
[11] = asterisks indicate the loss of the ability to protect cells from H2O2 over time
[12] = derived from dose response curves, 0.6-20 uM, H2O2-resistance of WI-38 cells
[13] = read-out: Est. ED50, dose response 0.6-20 μM, H2O2-resistance
[14] = in liquid, wild type, with FuDR, 1.0 × 10^9 bacteria/ml, read-out: relative change of mean lifespan vs control, Trial 1
[15] = in liquid, wild type, with FuDR, 2.5 × 10^9 bacteria/ml, read-out: relative change of mean lifespan vs control, Trial 2
[16] = on plate, CF512 temperature-sensitive sterile animals, without FuDR, 2.0 × 10^10 bacteria/ml, read-out: relative change of mean lifespan vs control, Trial 3
[17] = Assay 2(z), 1.0 × 10^9 bacteria/ml, wild type + FuDR (2012 July), read-out: Lifespan assay in liquid
[18] = Assay 3(aa), 2.5 × 10^9 bacteria/ml, wild type + FuDR, read-out: Lifespan assay in liquid
[19] = Assay 4(ab), 2.0 × 10^10 bacteria/ml, CF512 worms, no FuDR, read-out: Lifespan assay on plates
[20] = read-out: Experiment 1, H2A.X-P DNA damage foci staining (no H2O2 stress treatment), at 10 uM
[21] = read-out: Experiment 2, H2A.X-P DNA damage foci staining (no H2O2 stress treatment), at 10 uM
[22] = read-out: Experiment 2, H2A.X-P DNA damage foci staining (under H2O2 stress treatment), at 10 uM
[23] = read-out: Experiment 2, TP53BP1-P DNA damage foci staining (no H2O2 stress treatment), at 10 uM
[24] = read-out: Experiment 2, TP53BP1-P DNA damage foci staining (under H2O2 stress treatment), at 10 uM

T1 sequence (P09874 whole entry): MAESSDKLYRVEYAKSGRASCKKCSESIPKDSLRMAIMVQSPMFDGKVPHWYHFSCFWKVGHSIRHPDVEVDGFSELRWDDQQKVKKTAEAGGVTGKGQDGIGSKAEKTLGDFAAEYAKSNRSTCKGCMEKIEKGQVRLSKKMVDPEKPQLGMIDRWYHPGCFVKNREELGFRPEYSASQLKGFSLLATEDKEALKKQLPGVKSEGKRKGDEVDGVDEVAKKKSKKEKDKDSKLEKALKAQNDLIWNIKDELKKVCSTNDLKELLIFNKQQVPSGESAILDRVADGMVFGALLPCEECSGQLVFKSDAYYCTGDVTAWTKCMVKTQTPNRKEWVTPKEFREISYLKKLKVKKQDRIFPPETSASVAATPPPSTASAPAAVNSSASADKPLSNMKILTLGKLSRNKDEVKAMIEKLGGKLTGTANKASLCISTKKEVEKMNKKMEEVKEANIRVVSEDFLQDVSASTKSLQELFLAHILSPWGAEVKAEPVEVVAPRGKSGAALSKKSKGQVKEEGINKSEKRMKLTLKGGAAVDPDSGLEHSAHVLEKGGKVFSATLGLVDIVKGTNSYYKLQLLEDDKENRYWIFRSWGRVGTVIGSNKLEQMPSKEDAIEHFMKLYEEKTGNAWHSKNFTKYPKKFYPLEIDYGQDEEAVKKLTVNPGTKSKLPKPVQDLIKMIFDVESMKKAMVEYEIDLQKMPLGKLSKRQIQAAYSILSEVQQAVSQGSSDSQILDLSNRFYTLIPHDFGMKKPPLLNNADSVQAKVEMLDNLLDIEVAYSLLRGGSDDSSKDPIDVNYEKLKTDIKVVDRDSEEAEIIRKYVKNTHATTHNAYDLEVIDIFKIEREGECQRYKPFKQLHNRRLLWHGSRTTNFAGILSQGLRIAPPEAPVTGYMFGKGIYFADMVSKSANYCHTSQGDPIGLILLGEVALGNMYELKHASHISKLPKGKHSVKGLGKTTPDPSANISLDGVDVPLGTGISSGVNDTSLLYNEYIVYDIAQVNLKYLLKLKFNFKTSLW

With `O=C(Nc1cc(C(F)(F)F)ccc1Cl)c1ccc([N+](=O)[O-])o1` [Gr-1B] the fold induction at 10 µM [1, 7] was 0.7, the fold induction at 10 µM [1, 8] was 3.03 and the “Assay 3: MMS-resistant” value [1] was “NO *”. The “Assay 5: Triple resistant” value [1] was “YES”, the “B = MMS resistant” value [1, 9] was 0 and the “B = MMS resistant” value ([1]; summary score) was 0. The “D = Triple resistant” value ([1]; summary score) was 0, the H2O2-resistant [2, 10] was “YES” and the “No H2O2 stress treatment, at 10 uM (fold change)” value ([2]; WI-38 cells) was 0.94 fold change. For the same molecule, the “Assay 1: H2O2-resistant” value [2] was “YES”, the H2O2-resistant [2, 11] was “YES” and the EC50 [2, 12] was 6.2 µM. For the same molecule, the EC50 [2, 13] was 2.65 µM, the “L = PARP inhibition” value [3] was 0 and the ILS at 60 µM [4, 14] was 12.9%. For the same molecule, the ILS at 60 µM [4, 15] was 8%, the ILS at 60 µM [4, 16] was 15.1% and the ILS at 66 µM [4, 17] was 12.9%. For the same molecule, the ILS at 66 µM [4, 18] was 8%, the ILS at 66 µM [4, 19] was 15.1% and the “O = Life span- extending scores in worms” value [4] was 1 (1 for lifespan extension observed in 2 trials). For the same molecule, the “M = Lifespan-extending scores in worms” value [4] was 1 (1 for lifespan extension observed in 2 trials), the “M = Huntington's poly-Q toxicity attenuation” value [5] was 0 and the “K = Huntington's poly-Q toxicity attenuation” value [5] was 0. It also gave an activity at 10 µM [6, 20] of 134%, an activity at 10 µM [6, 21] of 95.8% and an activity at 10 µM [6, 22] of 118%. The activity at 10 µM [6, 23] was 211%, the activity at 10 µM [6, 24] was 137% and the “P = Potential DNA-damaging” value ([6]; human, 24 h) was 0. For the same molecule, the “R = Potential DNA damaging” value ([6]; human, 24 h) was 0.

`CCCN1C/C(=C\c2ccc(F)cc2)C(=O)/C(=C/c2ccc(F)cc2)C1` [O15] was tested, and the fold induction at 10 µM [1, 7] was 0.16, the fold induction at 10 µM [1, 8] was 0.38 and the “B = MMS resistant” value [1, 9] was 0. The “B = MMS resistant” value ([1]; summary score) was 0, the “D = Triple resistant” value ([1]; summary score) was 0 and the H2O2-resistant [2, 10] was “YES (*)”. For the same molecule, the “No H2O2 stress treatment, at 10 uM (fold change)” value ([2]; WI-38 cells) was 0.98 fold change, the “Assay 1: H2O2-resistant” value [2] was “YES” and the H2O2-resistant [2, 11] was “YES (*)”. For the same molecule, the EC50 [2, 13] was 20 µM, the “L = PARP inhibition” value [3] was 0 and the ILS at 60 µM [4, 14] was 38%. For the same molecule, the ILS at 60 µM [4, 15] was 6.6%, the ILS at 60 µM [4, 16] was 14.6% and the ILS at 66 µM [4, 17] was 38%. For the same molecule, the ILS at 66 µM [4, 18] was 6.6%, the ILS at 66 µM [4, 19] was 14.6% and the “O = Life span- extending scores in worms” value [4] was 1 (1 for lifespan extension observed in 2 trials). The “M = Lifespan-extending scores in worms” value [4] was 1 (1 for lifespan extension observed in 2 trials), the “M = Huntington's poly-Q toxicity attenuation” value [5] was 0 and the “K = Huntington's poly-Q toxicity attenuation” value [5] was 0. For the same molecule, the activity at 10 µM [6, 20] was 90%, the activity at 10 µM [6, 21] was 184% and the activity at 10 µM [6, 22] was 58.4%. For the same molecule, the activity at 10 µM [6, 23] was 48.3%, the activity at 10 µM [6, 24] was 251% and the “P = Potential DNA-damaging” value ([6]; human, 24 h) was 0. The “R = Potential DNA damaging” value ([6]; human, 24 h) was 0.

For `COc1ccc(C(=O)/C=C/c2ccccc2Br)c(OC)c1` [Gr-4B], the fold induction at 10 µM [1, 7] was 1.22, the fold induction at 10 µM [1, 8] was 1.54 and the “Assay 3: MMS-resistant” value [1] was “YES”. The “Assay 5: Triple resistant” value [1] was “YES”, the “B = MMS resistant” value [1, 9] was 0 and the “B = MMS resistant” value ([1]; summary score) was 1. For the same molecule, the “D = Triple resistant” value ([1]; summary score) was 2, the H2O2-resistant [2, 10] was “YES” and the “No H2O2 stress treatment, at 10 uM (fold change)” value ([2]; WI-38 cells) was 1.18 fold change. The “Assay 1: H2O2-resistant” value [2] was “YES”, the H2O2-resistant [2, 11] was “YES” and the EC50 [2, 12] was 8.9 µM. For the same molecule, the EC50 [2, 13] was 5.33 µM, the “L = PARP inhibition” value [3] was 0 and the ILS at 60 µM [4, 14] was 8.1%. For the same molecule, the ILS at 60 µM [4, 15] was 14.5%, the ILS at 60 µM [4, 16] was 10.7% and the ILS at 66 µM [4, 17] was 8.1%. The ILS at 66 µM [4, 18] was 14.5%, the ILS at 66 µM [4, 19] was 10.7% and the “O = Life span- extending scores in worms” value [4] was 1 (1 for lifespan extension observed in 2 trials). For the same molecule, the “M = Lifespan-extending scores in worms” value [4] was 1 (1 for lifespan extension observed in 2 trials), the “M = Huntington's poly-Q toxicity attenuation” value [5] was 0 and the “K = Huntington's poly-Q toxicity attenuation” value [5] was 0. The activity at 10 µM [6, 20] was 116%, the activity at 10 µM [6, 21] was 140% and the activity at 10 µM [6, 22] was 150%. For the same molecule, the activity at 10 µM [6, 23] was 118%, the activity at 10 µM [6, 24] was 435% and the “R = Potential DNA damaging” value ([6]; negative point, cultured human cells) was 0. The “P = Potential DNA-damaging” value ([6]; summary score) was 0.
